Experimental data reported in PMC5247571 (International Journal for Parasitology: Drugs and Drug …, 2017).

Columns and labels:
[1] = test system: blowfly larvae (Lucilia cuprina); assay: Blowfly larval bioassay; type: in vivo; settings: for Blowfly bioassay, pupation, IC50: L. cuprina LS strain, number of pupae on Day 9 vs controls, 2 experiments; for Pupation IC50 relative to larval weight gain IC50: ratio of the two bioassay IC50 values; for Insecticidal activity in the blowfly bioassay (in words): blowfly larval bioassay
[2] = test system: HDAC activity of nuclear extracts from blowfly eggs; assay: Fluorometric HDAC enzyme assay with nuclear extracts from blowfly eggs; type: biochemical, Lucilia cuprina; settings: blowfly egg nuclear extract IC50 comparison
[3] = larval bioassay IC50 comparison

Structure (SMILES): CCCC(=O)OCOC(=O)C(C)(C)C [AN-9]
- Blowfly bioassay, pupation, IC50 [1]: >1000 μg/assay

Structure (SMILES): CCC(=O)CCCCC[C@@H]1NC(=O)[C@H]2CCCCN2C(=O)[C@H]([C@@H](C)CC)NC(=O)[C@H](Cc2cn(OC)c3ccccc23)NC1=O [Apicidin]
- Blowfly bioassay, pupation, IC50 [1]: 489 μg/assay
- Pupation IC50 relative to larval weight gain IC50 [1]: 6 fold

Structure (SMILES): O=C(/C=C/c1cccc(S(=O)(=O)Nc2ccccc2)c1)NO [Belinostat]
- Blowfly bioassay, pupation, IC50 [1]: >1000 μg/assay

Structure (SMILES): C#Cc1cccc(Nc2ncnc3cc(OC)c(OCCCCCCC(=O)NO)cc23)c1 [CUDC-101]
- Blowfly bioassay, pupation, IC50 [1]: >1000 μg/assay

Structure (SMILES): COc1ccc(-c2nc(N3CCOCC3)c3sc(CN(C)c4ncc(C(=O)NO)cn4)cc3n2)cn1 [CUDC-907]
- Blowfly bioassay, pupation, IC50 [1]: 13.8 μg/assay
- Potency against blowfly larval growth relative to cyromazine (fold less potent) [1, 3]: approximately 10 fold
- Pupation IC50 relative to larval weight gain IC50 [1]: approximately equal

Structure (SMILES): Nc1nc(N)nc(NC2CC2)n1 [Cyromazine]
- Blowfly bioassay, pupation, IC50 [1]: 1.54 μg/assay

Structure (SMILES): N#Cc1c(N)nc(NC2CC2)nc1N [Dicyclanil]
- Blowfly bioassay, pupation, IC50 [1]: 0.0634 μg/assay

Structure (SMILES): O=C(NC(=O)c1c(F)cccc1F)Nc1ccc(Cl)cc1 [Diflubenzuron]
- Blowfly bioassay, pupation, IC50 [1]: 0.119 μg/assay

Structure (SMILES): Nc1ccccc1NC(=O)c1ccc(CNC(=O)OCc2cccnc2)cc1 [Entinostat]
- Blowfly bioassay, pupation, IC50 [1]: 640 μg/assay

Structure (SMILES): CCN(CC)Cc1ccc2cc(COC(=O)Nc3ccc(C(=O)NO)cc3)ccc2c1 [Givinostat]
- Blowfly bioassay, pupation, IC50 [1]: >1000 μg/assay

Structure (SMILES): Nc1ccccc1NC(=O)c1ccc(CNc2nccc(-c3cccnc3)n2)cc1 [Mocetinostat]
- Blowfly bioassay, pupation, IC50 [1]: >1000 μg/assay

Structure (SMILES): CCCCN(Cc1ccc(C(=O)NO)cc1)C(=O)Nc1ccccc1 [Nexturostat, Nexturastat A]
- Blowfly bioassay, pupation, IC50 [1]: >1000 μg/assay

Structure (SMILES): Cc1[nH]c2ccccc2c1CCNCc1ccc(/C=C/C(=O)NO)cc1 [Panobinostat]
- Blowfly bioassay, pupation, IC50 [1]: 393 μg/assay

Structure (SMILES): C=C1C(=O)O[C@H]2[C@H]1CC/C(C)=C/CC[C@@]1(C)O[C@@H]21 [Parthenolide, parthenolide]
- Blowfly bioassay, pupation, IC50 [1]: >1000 μg/assay
- Insecticidal activity in the blowfly bioassay (in words) [1]: no insecticidal activity

Structure (SMILES): CCCCc1nc2cc(/C=C/C(=O)NO)ccc2n1CCN(CC)CC [Pracinostat]
- Blowfly bioassay, pupation, IC50 [1]: >1000 μg/assay

Structure (SMILES): O=C(NCCSSCCNC(=O)/C(Cc1ccc(O)c(Br)c1)=N/O)/C(Cc1ccc(O)c(Br)c1)=N/O [Psammaplin A]
- Blowfly bioassay, pupation, IC50 [1]: 93.4 μg/assay

Structure (SMILES): Cn1cc(CNCC2CCN(c3ncc(C(=O)NO)cn3)CC2)c2ccccc21 [Quisinostat]
- Blowfly bioassay, pupation, IC50 [1]: 274 μg/assay

Structure (SMILES): CN(C)Cc1ccc(S(=O)(=O)n2ccc(/C=C/C(=O)NO)c2)cc1 [Resminostat]
- Blowfly bioassay, pupation, IC50 [1]: >1000 μg/assay

Structure (SMILES): C/C=C1\NC(=O)[C@H]2CSSCC/C=C/[C@H](CC(=O)N[C@H](C(C)C)C(=O)N2)OC(=O)[C@H](C(C)C)NC1=O [Romidepsin]
- Blowfly bioassay, pupation, IC50 [1]: 0.196 μg/assay
- Potency against blowfly larval growth relative to cyromazine (fold more potent) [1, 3]: 10 fold
- Potency against blowfly larval growth relative to dicyclanil ([1]; larval bioassay IC50 comparison, in words): equipotent
- Pupation IC50 relative to larval weight gain IC50 [1]: ≤ 2 fold
- Potency in nuclear extract HDAC assay relative to quisinostat (fold more potent) [2]: approximately 600 fold

Structure (SMILES): CC(/C=C/C(=O)NO)=C\[C@@H](C)C(=O)c1ccc(N(C)C)cc1 [Trichostatin]
- Blowfly bioassay, pupation, IC50 [1]: 20.6 μg/assay
- Potency against blowfly larval growth relative to cyromazine (fold less potent) [1, 3]: approximately 10 fold
- Pupation IC50 relative to larval weight gain IC50 [1]: ≤ 2 fold

Structure (SMILES): O=C(CCCCCCC(=O)Nc1ccc([C@H]2O[C@@H](CSc3nc(-c4ccccc4)c(-c4ccccc4)o3)C[C@@H](c3ccc(CO)cc3)O2)cc1)NO [Tubacin]
- Blowfly bioassay, pupation, IC50 [1]: >1000 μg/assay
- Insecticidal activity in the blowfly bioassay (in words) [1]: inactive

Structure (SMILES): CN1CCc2c(c3ccccc3n2Cc2ccc(C(=O)NO)cc2)C1 [Tubastatin A]
- Blowfly bioassay, pupation, IC50 [1]: >1000 μg/assay
- Insecticidal activity in the blowfly bioassay (in words) [1]: inactive

Structure (SMILES): CCCC(CCC)C(=O)O [Valproic acid]
- Blowfly bioassay, pupation, IC50 [1]: >1000 μg/assay
